Peptide text beside a SMILES is read from it. * marks the point of attachment. Cbz = O=C(OCc1ccccc1)*
What was measured:
Type in all cases: cell-based
SnoN = assay: Western analysis of SnoN protein levels; set-up: SnoN basal protein levels: dose or concentration left out as unconfirmed
Protocol: (§1) Proteins were resolved on an 8%, 12%, or 15% SDS-PAGE gel (as appropriate) and electrophoretically transferred to polyvinyldifluoride (PVDF) membranes. After blocking with 5% (w/v) milk in TBST (Tris-Buffered Saline containing 0.1% Tween-20) for one hour at room temperature, membranes were incubated with primary antibodies (at appropriate dilution) overnight at 4° C., followed by extensive washing and incubation for 1 hour with the appropriate horseradish peroxidase-conjugated secondary antibodies (BioRad, Hercules, Calif.). Blots were washed extensively. A rabbit polyclonal EVI1 antibody was obtained (1:3000 dilution, St. Jude's Children's Hospital, Memphis, Tenn.). SnoN rabbit polyclonal (1:1000 dilution), PML, and p21 SMURF2 rabbit polyclonal (1:500 dilution), MRP1 mouse monoclonal (1:500 dilution) and GAPDH mouse monoclonal (1:250 dilution) antibodies were obtained from Santa Cruz Biotechnology (Santa Cruz, Calif.). TGFβRII rabbit polyclonal (1:1000 dilution) antibody was obtained from Strategic Diagnostics (Newark, Del.). Smad2/3 rabbit polyclonal (1:1000 dilution), Beclin-1 rabbit polyclonal (1:1000 dilution), AKT rabbit polyclonal (1:1000 dilution), TAK1 rabbit polyclonal (1:1000 dilution), PARP rabbit polyclonal (1:1000 dilution), Beclin-1 rabbit polyclonal (1:1000 dilution), caspase-3 rabbit polyclonal (1:1000) which detects the pro-caspase form, and ATG5 rabbit polyclonal (1:1000 dilution), LC3-II rabbit polyclonal (1:1000 dilution) antibodies were obtained from Cell Signaling Technology (Danvers, Mass.). The HSP27 mouse monoclonal (1:1000 dilution) antibody was obtained from Stressgen (Ann Arbor, Mich.). Blots were developed using chemiluminescence substrates (Amersham Piscataway, N.J. or BioRad, Hercules, Calif.). Monoclonal PAI-1 antibody was obtained from BD Pharmingen. PSMAD2, total SMAD2/3, p-ERK, p-AKT, and total AKT antibodies were obtained from Cell Signaling Technology. A monoclonal antibody against Arkadia was obtained from Abnova (Taiwan).
(§2) Densitometric analysis was performed using the HP Scanjet 5590 and the Image J program (Image Processing and Analysis in Java, NIH Image Software). Bands were selected and the intensity values were normalized to those for GAPDH. The values are presented as fold-changes relative to control siRNA treated cells.
The clinical inhibitors As2O3, geldanamycin (17-AAG) (dissolved in dimethylsulfoxide [DMSO]), and MG132 (dissolved in DMSO) were obtained from Sigma-Aldrich (St. Louis, Mo.), Fisher Scientific (Pittsburgh, Pa.), and Alexis Biochemicals (Farmingdale, N.Y.), respectively. N-acetyl-L-cysteine (NAC; dissolved in media) and Bortezomib (PS-341; dissolved in DMSO) were obtained from Fisher Scientific. 3-Methyladenine (3-MA; dissolved in media) was obtained from MP Biomedicals (Solon, Ohio). Tiron (4,5-Dihydroxy-1,3-benzenedisulfonic acid, dissolved in media) was obtained from Fisher Scientific. zVAD-fmk (dissolved in DMSO) and bafilomycin A (dissolved in DMSO) was obtained from Axxora LLC (San Diego, Calif.). Bovine catalase was obtained from Sigma-Aldrich. HBED and Mn TBAP was obtained from ENZO Life Sciences (Farmingdale, N.Y.). Ovarian cells were plated in 6-well plates at 250,000 cells per well and grown in complete medium. […] For control cells, DMSO (a final concentration of <0.5%) was added to compare appropriately to drugs dissolved in DMSO. After the appropriate incubation time (6 or 18 hours), cell lysates were collected, protein quantified, and SDS-PAGE/western analysis was performed. In addition, for selected studies, RNA was isolated, quantified, and used for qPCR analysis.

[1] = test system: EVI1 forms (MDS1/EVI1, EVI1, EVI1^Del190-515); details: combination with As2O3; HEY, OVCA429
Protocol: as §1, §2
(§3) The clinical inhibitors As2O3, geldanamycin (17-AAG) (dissolved in dimethylsulfoxide [DMSO]), and MG132 (dissolved in DMSO) were obtained from Sigma-Aldrich (St. Louis, Mo.), Fisher Scientific (Pittsburgh, Pa.), and Alexis Biochemicals (Farmingdale, N.Y.), respectively. N-acetyl-L-cysteine (NAC; dissolved in media) and Bortezomib (PS-341; dissolved in DMSO) were obtained from Fisher Scientific. 3-Methyladenine (3-MA; dissolved in media) was obtained from MP Biomedicals (Solon, Ohio). Tiron (4,5-Dihydroxy-1,3-benzenedisulfonic acid, dissolved in media) was obtained from Fisher Scientific. zVAD-fmk (dissolved in DMSO) and bafilomycin A (dissolved in DMSO) was obtained from Axxora LLC (San Diego, Calif.). Bovine catalase was obtained from Sigma-Aldrich. HBED and Mn TBAP was obtained from ENZO Life Sciences (Farmingdale, N.Y.). Ovarian cells were plated in 6-well plates at 250,000 cells per well and grown in complete medium. The following day, the cells were treated with 5 μM MG132, As2O3 (between 2-50 μM), 17-AAG (between 2-50 μM), NAC (Fisher Scientific, between 25 μM to 1 mM), Tiron (between 25 μM to 1 mM), 3-MA (0.1 mM to 10 mM), or zVAD-fmk (25 μM to 100 μM). For control cells, DMSO (a final concentration of <0.5%) was added to compare appropriately to drugs dissolved in DMSO. After the appropriate incubation time (6 or 18 hours), cell lysates were collected, protein quantified, and SDS-PAGE/western analysis was performed. In addition, for selected studies, RNA was isolated, quantified, and used for qPCR analysis.

[2] = test system: TAK1, SMAD2/3, TGFβRII, AKT, phospho-SMAD2; assay: Western analysis of other TGFβ signaling mediators
Protocol: as §1, §2, §3

EVI1 and TGFβRII RNA = assay: qPCR of EVI1 and TGFβRII RNA levels; details: 5 μM MG132, 18 hours
Protocol: RNA was isolated using the RNeasy Mini Kit (Qiagen, Valencia, Calif.) from normal, benign, stage I-IV ovarian patient samples and quantitative PCR was performed. A one-step RT-PCR Taqman master mix from Applied Biosystems (Foster City, Calif.) and primers for genes in the 3q26.2 amplicon were obtained using Genebank sequences as well as from Assays on Demand (Hs00180524_m1 (SnoN/SkiL)), with the following primers and probe sets.
EVI1 Exon III—(detects both EVI1 and MDS1/EVI1):
Primers/probe sequences for SnoN (Hs00180524_m1), TGFβRII (Hs00234253_m1), and LC3 (Hs00261291_m1) were obtained from Applied Biosystems (Assays by Design).
mRNA levels were determined using the One-Step-Plus Applied Biosystems Detection System or ABI PRISM 7700 Sequence Detection System using β-actin as a reference. […] 95° C. for 15 s followed by 60° C. for 1 min Using the correlative method, RNA-fold change in expression was calculated as Ct of gene—Ct of β-actin to generate ΔCt from which ΔCt of the normal sample was subtracted. […]
The clinical inhibitors As2O3, geldanamycin (17-AAG) (dissolved in dimethylsulfoxide [DMSO]), and MG132 (dissolved in DMSO) were obtained from Sigma-Aldrich (St. Louis, Mo.), Fisher Scientific (Pittsburgh, Pa.), and Alexis Biochemicals (Farmingdale, N.Y.), respectively. […] In addition, for selected studies, RNA was isolated, quantified, and used for qPCR analysis.

CC(C)C[C@@H](C=O)NC(=O)[C@H](CC(C)C)NC(=O)[C@H](CC(C)C)NC(=O)OCc1ccccc1 [MG132] (Cbz-Leu-Leu-Leu-aldehyde)
SnoN basal protein levels (SnoN; MG132, HEY and OVCA429, threshold between 3 and 6 h): marked increase
SnoN protein in drug-treated cells with added proteosome inhibitor (SnoN; combination with As2O3): further increased
EVI1 protein in As2O3-treated cells with added proteosome inhibitor [1]: recovered
AKT, SMAD2/3, and TGFβRII protein levels ([2]; MG132 at 18 hours): significantly decreased
TGFβRII protein in drug-treated cells with added proteosome inhibitor ([2]; combination with As2O3 (MG132: 6 hour drug treatment)): recovered
EVI1 and TGFβRII RNA levels (EVI1 and TGFβRII RNA): markedly reduce

From patent US8211646B1, “Methods of treating ovarian cancer by modulating SnoN” (University of South Florida, priority 2008, dated 2012)
